Counter-ions that a name gives are not always drawn. Like-named read-outs stand apart in the source and are kept apart here.
Key:
[1] = target: alpha 1 adrenergic receptors; conditions: control substance; Shayes and Green, J. Pharmacol. Exp. Ther. 1971, Vol 180, pp 317-325; cited from earlier work
[2] = tested on: New Zealand white rabbit eyes; assay: Intraocular pressure (anti-glaucoma) assay in unanesthetized rabbits, topical unilateral administration; type: in vivo; conditions: for Maximum Difference in Intraocular Pressure After Solution Administration, Ipsilateral (Treated) Eye: 0.1% (W/V) in distilled water, single 50 microliter drop topically to one eye; for Maximum Difference in Intraocular Pressure After Solution Administration, Contralateral (Untreated) Eye: single 50 microliter drop to the other eye, contralateral (untreated) eye received saline
Procedure: The anti-glaucoma activity (ability to maintain or reduce intraocular pressure) of the compounds of the present invention was confirmed by the following assay procedure. This assay procedure is generally recognized in the art to provide pertinent information with respect to the anti-glaucomaactivity of the formulations assayed. Thus, each of the compounds of the invention to be tested was dissolved in distilled water at a concentration of 0.1% (W/V). Each of these solutions was administered topically and unilaterally to one eye of a drug-naive, unanesthetized New Zealand white rabbit in a single 50 microliter drop. The contralateral eye received an equal volume of saline prior to determining the intraocular pressure after the mixture was administered. Also, approximately 10 microliters of 0.5% (W/V) proparacine (topical anesthetic) was applied to the corneas of each of the rabbits before determining intraocular pressure. As a control test, six (6) other drug-naive, unanesthetized New Zealand white rabbits were treated and tested as described above except that no compound of the invention was included in the solutions administered to the eyes.
The intraocular pressure was determined in both eyes of each rabbit both before and after the solutions were administered. Such intraocular pressure determinations were made in the conventional manner using conventional equipment.

[3] = tested on: alpha 1 adrenergic receptors; assay: Rabbit Aorta: Alpha 1 adrenergic receptor assay (isolated thoracic aorta rings, tension); conditions: 37° C., cumulative addition

Structure (SMILES)	EC50 [1]	Maximum Difference in Intraocular Pressure After Solution Administration, Ipsilateral (Treated) Eye [2]	Maximum Difference in Intraocular Pressure After Solution Administration, Contralateral (Untreated) Eye ([2]; 0.1% (W/V))	reduction of intraocular pressure in the contralateral eye compared with the ipsilateral eye ([2]; result in words, New Zealand white rabbit, 0.1% (W/V))	EC50 [3]
CNC[C@H](O)c1cccc(O)c1 [L-phenylephrine]	182 nM				
Cc1c(O)cccc1NC1=NCCO1 [Compound 1, 2-(3-Hydroxy-2-methylphenylamino)-Oxazoline, hydrochloride]		-3.3 ± 1.0 mm Hg	-7.3 ± 1.0 mm Hg	the reduction in the contralateral eye is greater than in the ipsilateral eye	602 ± 108 nM
Cc1c(O)ccc(NC2=NCCO2)c1C.Cl [Compound 2, 2-(2,3-Dimethyl-4-hydroxyphenylamino)-oxazoline, hydrochloride]		-3.9 ± 1.9 mm Hg	-3.3 ± 0.5 mm Hg		19.9 ± 15.6 nM

Reference: US5066664A, “2-(hydroxy-2-alkylphenylamino)-oxazolines and thiazolines as anti-glaucoma and vasoconstrictive agents” (Allergan, Inc., priority 1990, dated 1991)
